Ends that are not written are not given here. Peptide text beside a SMILES is read from it. * marks the point of attachment. Palmitoyl = CCCCCCCCCCCCCCCC(=O)*; Myristoyl = CCCCCCCCCCCCCC(=O)*

In one experiment the test system is C57BL/6 mice. As to the kind of experiment: Food intake in fasted mice after SC injection. It counts as in vivo. Particulars: 5 mg/kg SC, 45 min after injection. Here is the method:
NMRI mice, C57BL/6 mice, and Wistar rats (AnLab, Prague, Czech Republic) were housed in a temperature of 23° C. and a daily cycle of 12 h light and dark (light from 6:00). They were given ad libitum water and a standard chow diet that contained 25, 9 and 66% of calories of protein, fat and carbohydrate respectively. Energy content of the feed was 3.4 kcal/g (St-1, Mlýn Kocanda, Czech Republic). Db/db mice and their controls (C57BL/6 background) were obtained from Taconic (Denmark), housed under the same conditions as described above, and fed by Altromin (Taconic, Denmark). ZDF-Lepr^fa/Crl, diabetic fa/fa male rats were obtained from Charles River (France), housed under same conditions as described above, and fed with a Purina 5008 diet (IPS Product Supplies Limited, UK). All experiments followed the ethical guidelines for animal experiments and the law of the Czech Republic Nr. 246/1992.
In experiments with C57BL/6 mice or Wistar rats, food intake was measured with overnight fasted animals in individual cages. Food was withdrawn 17 hours prior to injection of lipidated analog of prolactin releasing peptide (PrRP); free access to water was maintained. The administration of either saline, PrRP, or lipidated analogs was performed by SC injection at doses of 1-10 mg/kg (which corresponded to a volume of 0.2 ml/mouse and 0.1 ml/100 g weight of rat). Fifteen minutes after the lipidated analog of prolactin releasing peptide (PrRP) administration, the mice were given pre-weighed food. The food was then weighed every 30 minutes for 5-10 hours. The administration of each dose was performed at least twice, and each group of mice consisted of at least 6 mice.

The target in the next experiment is T1, rat PrRP receptor (Rattus norvegicus, UniProt Q64121).
T1 construct: host or cells: RC-4B/C rat pituitary cell line
T1 sequence (Q64121 1-370): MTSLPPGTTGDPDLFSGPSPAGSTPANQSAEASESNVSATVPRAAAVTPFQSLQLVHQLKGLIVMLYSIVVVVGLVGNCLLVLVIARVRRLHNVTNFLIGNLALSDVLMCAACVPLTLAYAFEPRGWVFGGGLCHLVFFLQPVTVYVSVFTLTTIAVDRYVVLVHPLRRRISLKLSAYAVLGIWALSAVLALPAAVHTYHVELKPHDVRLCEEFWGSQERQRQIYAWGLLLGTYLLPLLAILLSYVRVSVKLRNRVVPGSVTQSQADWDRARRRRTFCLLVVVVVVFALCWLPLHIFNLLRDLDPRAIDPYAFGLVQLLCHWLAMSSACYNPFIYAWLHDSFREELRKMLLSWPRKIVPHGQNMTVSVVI
As to the kind of experiment: Competitive binding in RC-4B/C rat pituitary cells (125I-rat PrRP31). Particulars: for % of PrRP31, RC-4B/C rat pituitary cells: affinity relative to PrRP31; for Ki: displacement of 125I-rat PrRP31, read-out: Ki, RC-4B/C rat pituitary cells ^25I-rat PrRP31. The procedure, abridged: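 Displacement of rat 125I-PrRP31 ([…]) by test analogs, 10^−11–10^−4 mol·l^−1, on whole RC-4B/C cells, 60 min RT. Bound counts measured by γ-counter in duplicate, ≥3 repeats, analyzed by nonlinear one-site binding regression.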

The target of experiment [1] is T2, human PrRP receptor GPR10 (Homo sapiens, UniProt P49683).
T2 construct: host or cells: CHO cells
T2 sequence (P49683 1-370): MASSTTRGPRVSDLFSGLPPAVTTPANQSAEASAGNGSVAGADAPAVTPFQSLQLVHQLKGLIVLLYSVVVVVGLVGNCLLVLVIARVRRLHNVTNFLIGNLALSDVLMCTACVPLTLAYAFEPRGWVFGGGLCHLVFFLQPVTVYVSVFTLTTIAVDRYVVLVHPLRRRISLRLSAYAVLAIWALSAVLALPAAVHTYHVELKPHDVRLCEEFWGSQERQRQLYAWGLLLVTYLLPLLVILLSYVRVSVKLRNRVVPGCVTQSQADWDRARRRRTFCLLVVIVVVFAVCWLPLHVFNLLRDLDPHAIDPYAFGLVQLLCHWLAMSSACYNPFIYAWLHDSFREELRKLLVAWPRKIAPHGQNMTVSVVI
As to the kind of experiment: Competitive binding in CHO cells transfected with human GPR10 (human 125I-PrRP31). Particulars: for Ki: CHO cells, human 125I-PrRP31, read-out: Ki, GPR10 human receptor transfected in CHO cells; for % of PrRP31, GPR10 human receptor transfected in CHO cells: affinity relative to PrRP31. Summed up: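 Values from one-site nonlinear regression of displacement curves: analogs (final 10^-11 to 10^-4 mol·l^-1) competed with 125I-PrRP31 (final 5×10^-11 mol·l^-1) on adherent human GPR10 CHO cells. Binding ran 1 h at room temperature, pH 7.4 buffer with NaCl, MgCl2, CaCl2, glucose, BSA; cell-bound radioactivity counted after NaOH lysis.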

Take `CCCCCCCCCCCCCC(=O)N[C@H](C(=O)N1CCC[C@H]1C(=O)N[C@@H](CC(=O)O)C(=O)N[C@H](C(=O)N[C@@H](CC(N)=O)C(=O)N1CCC[C@H]1C(=O)N[C@@H](C)C(=O)N[C@@H](Cc1c[nH]c2ccccc12)C(=O)N[C@@H](Cc1ccc(O)cc1)C(=O)N[C@H](C(=O)NCC(=O)N[C@@H](CCCNC(=N)N)C(=O)NCC(=O)N[C@H](C(=O)N[C@@H](CCCNC(=N)N)C(=O)N1CCC[C@H]1C(=O)N[C@H](C(=O)NCC(=O)N[C@@H](CCCNC(=N)N)C(=O)N[C@@H](Cc1ccccc1)C(N)=O)C(C)C)[C@@H](C)CC)[C@@H](C)O)[C@@H](C)CC)[C@@H](C)O` [Analog 1] (Myristoyl-TPDINPAWYTGRGIRPVGRF-NH2): the “Food intake in mice % of saline-treated group” value (shortened to “Food intake in mice %”) in the experiment with C57BL/6 mice worked out at 32%. The “% of PrRP31, RC-4B/C rat pituitary cells” value on rat PrRP receptor was 632%. Further, in experiment [1], the Ki amounted to 2.93 ± 0.2 nM and the “% of PrRP31, GPR10 human receptor transfected in CHO cells” value (shortened to “% of PrRP31 … in CHO cells”) came out at 133%.

Turning to `CCCCCCCCCCCCCC(=O)N[C@H](C(=O)N1CCC[C@H]1C(=O)N[C@@H](CC(=O)O)C(=O)N[C@H](C(=O)N[C@@H](CC(N)=O)C(=O)N1CCC[C@H]1C(=O)N[C@@H](C)C(=O)N[C@@H](Cc1c[nH]c2ccccc12)C(=O)N[C@@H](Cc1ccc(O)cc1)C(=O)N[C@@H](C)C(=O)N[C@@H](CO)C(=O)N[C@@H](CCCNC(=N)N)C(=O)NCC(=O)N[C@H](C(=O)N[C@@H](CCCNC(=N)N)C(=O)N1CCC[C@H]1C(=O)N[C@H](C(=O)NCC(=O)N[C@@H](CCCNC(=N)N)C(=O)N[C@@H](Cc1ccccc1)C(N)=O)C(C)C)[C@@H](C)CC)[C@@H](C)CC)[C@@H](C)O` [Analog 2] (Myristoyl-TPDINPAWYASRGIRPVGRF-NH2), in the experiment on C57BL/6 mice, the “Food intake in mice %” value was 10%. Moreover, the “Displacement of rat 125I-PrRP binding” value at rat PrRP receptor (RC-4B/C cells, rat PrRP receptor) was “nmol·l^−1 range”. Moreover, the “% of PrRP31, RC-4B/C rat pituitary cells” value at rat PrRP receptor was 1027%. Besides, in experiment [1], the “% of PrRP31 … in CHO cells” value worked out at 90%. Also, the “Displacement of human 125I-PrRP binding” value in experiment [1] (human GPR10 receptor) is “nmol·l^−1 range”.

In the case of `CCCCCCCCCCCCCC(=O)N[C@@H](CO)C(=O)N[C@@H](CCCNC(=N)N)C(=O)N[C@@H](C)C(=O)N[C@@H](Cc1c[nH]cn1)C(=O)N[C@@H](CCC(N)=O)C(=O)N[C@@H](Cc1c[nH]cn1)C(=O)N[C@@H](CO)C(=O)N[C@@H](CCSC)C(=O)N[C@@H](CCC(=O)O)C(=O)N[C@H](C(=O)N[C@@H](CCCNC(=N)N)C(=O)N[C@H](C(=O)N1CCC[C@H]1C(=O)N[C@@H](CC(=O)O)C(=O)N[C@H](C(=O)N[C@@H](CC(N)=O)C(=O)N1CCC[C@H]1C(=O)N[C@@H](C)C(=O)N[C@@H](Cc1c[nH]c2ccccc12)C(=O)N[C@@H](Cc1ccc(O)cc1)C(=O)N[C@H](C(=O)NCC(=O)N[C@@H](CCCNC(=N)N)C(=O)NCC(=O)N[C@H](C(=O)N[C@@H](CCCNC(=N)N)C(=O)N1CCC[C@H]1C(=O)N[C@H](C(=O)NCC(=O)N[C@@H](CCCNC(=N)N)C(=O)N[C@@H](Cc1ccccc1)C(N)=O)C(C)C)[C@@H](C)CC)[C@@H](C)O)[C@@H](C)CC)[C@@H](C)O)[C@@H](C)O` [Analog 46] (Myristoyl-SRAHQHSMETRTPDINPAWYTGRGIRPVGRF-NH2), the “Food intake in mice %” value in the experiment on C57BL/6 mice was found to be 20%. Further, the “% of PrRP31, RC-4B/C rat pituitary cells” value at rat PrRP receptor is on record as 657%.

Regarding `CCCCCCCCCCCCCCCC(=O)N[C@@H](CO)C(=O)N[C@@H](CCCNC(=N)N)C(=O)N[C@@H](C)C(=O)N[C@@H](Cc1c[nH]cn1)C(=O)N[C@@H](CCC(N)=O)C(=O)N[C@@H](Cc1c[nH]cn1)C(=O)N[C@@H](CO)C(=O)N[C@@H](CCSC)C(=O)N[C@@H](CCC(=O)O)C(=O)N[C@H](C(=O)N[C@@H](CCCNC(=N)N)C(=O)N[C@H](C(=O)N1CCC[C@H]1C(=O)N[C@@H](CC(=O)O)C(=O)N[C@H](C(=O)N[C@@H](CC(N)=O)C(=O)N1CCC[C@H]1C(=O)N[C@@H](C)C(=O)N[C@@H](Cc1c[nH]c2ccccc12)C(=O)N[C@@H](Cc1ccc(O)cc1)C(=O)N[C@H](C(=O)NCC(=O)N[C@@H](CCCNC(=N)N)C(=O)NCC(=O)N[C@H](C(=O)N[C@@H](CCCNC(=N)N)C(=O)N1CCC[C@H]1C(=O)N[C@H](C(=O)NCC(=O)N[C@@H](CCCNC(=N)N)C(=O)N[C@@H](Cc1ccccc1)C(N)=O)C(C)C)[C@@H](C)CC)[C@@H](C)O)[C@@H](C)CC)[C@@H](C)O)[C@@H](C)O` [Analog 47] (Palmitoyl-SRAHQHSMETRTPDINPAWYTGRGIRPVGRF-NH2), the “Food intake in mice %” value in the experiment on C57BL/6 mice is recorded as 2%. Besides, at rat PrRP receptor, the “% of PrRP31, RC-4B/C rat pituitary cells” value is reported as 1202%.

Take `CCCCCCCCCCCCCCCC(=O)NCCCC[C@H](NC(=O)[C@@H]1CCCN1C(=O)[C@H](CC(N)=O)NC(=O)[C@@H](NC(=O)[C@H](CC(=O)O)NC(=O)[C@@H]1CCCN1C(=O)[C@@H](NC(=O)[C@H](CCCNC(=N)N)NC(=O)[C@@H](NC(=O)[C@H](CCC(=O)O)NC(=O)[C@H](CCSC)NC(=O)[C@H](CO)NC(=O)[C@H](Cc1c[nH]cn1)NC(=O)[C@H](CCCNC(=N)N)NC(=O)[C@H](Cc1c[nH]cn1)NC(=O)[C@@H](NC(=O)[C@H](CCCNC(=N)N)NC(=O)[C@@H](N)CO)[C@@H](C)O)[C@@H](C)CC)[C@@H](C)O)[C@@H](C)CC)C(=O)N[C@@H](Cc1c[nH]c2ccccc12)C(=O)N[C@@H](Cc1ccc(O)cc1)C(=O)N[C@@H](C)C(=O)N[C@@H](CO)C(=O)N[C@@H](CCCNC(=N)N)C(=O)NCC(=O)N[C@H](C(=O)N[C@@H](CCCNC(=N)N)C(=O)N1CCC[C@H]1C(=O)N[C@H](C(=O)NCC(=O)N[C@@H](CCCNC(=N)N)C(=O)N[C@@H](Cc1ccccc1)C(N)=O)C(C)C)[C@@H](C)CC` [Analog 51] (H-SRTHRHSMEIRTPDINPK(Palmitoyl)WYASRGIRPVGRF-NH2): the “Food intake in mice %” value with C57BL/6 mice was 20%. In addition, in experiment [1], the Ki came out at 7.24 ± 0.13 nM and the “% of PrRP31 … in CHO cells” value came to 54%.

Regarding `CC[C@H](C)[C@H](NC(=O)CNC(=O)[C@H](CCCNC(=N)N)NC(=O)[C@H](CO)NC(=O)[C@H](C)NC(=O)[C@H](Cc1ccc(O)cc1)NC(=O)[C@H](Cc1c[nH]c2ccccc12)NC(=O)[C@H](C)NC(=O)[C@@H]1CCCN1C(=O)[C@H](CC(N)=O)NC(=O)[C@@H](NC(=O)[C@H](CC(=O)O)NC(=O)[C@@H]1CCCN1C(=O)[C@@H](NC(=O)[C@H](CCCNC(=N)N)NC(=O)[C@@H](NC(=O)[C@H](CCC(=O)O)NC(=O)[C@H](CCSC)NC(=O)[C@H](CO)NC(=O)[C@H](Cc1c[nH]cn1)NC(=O)[C@H](CCCNC(=N)N)NC(=O)[C@H](Cc1c[nH]cn1)NC(=O)[C@@H](NC(=O)[C@H](CCCNC(=N)N)NC(=O)[C@@H](N)CO)[C@@H](C)O)[C@@H](C)CC)[C@@H](C)O)[C@@H](C)CC)C(=O)N[C@@H](CCCNC(=N)N)C(=O)N1CCC[C@H]1C(=O)N[C@H](C(=O)NCC(=O)N[C@@H](CCCNC(=N)N)C(=O)N[C@@H](Cc1ccccc1)C(N)=O)C(C)C` [Human PrRP31, reference compound], the “Food intake in mice %” value in the experiment with C57BL/6 mice was determined as 100%. Moreover, the Ki at rat PrRP receptor (RC-4B/C cells) was 2.38 ± 0.19 nM. Moreover, the “% of PrRP31, RC-4B/C rat pituitary cells” value on rat PrRP receptor was found to be 207%.

For the compound “TPDINPAWYASRGIRPVGRF-NH2 [Human PrRP20, reference compound]”, in the experiment with C57BL/6 mice, the “Food intake in mice %” value worked out at 100%. Besides, on rat PrRP receptor (RC-4B/C cells), the Ki is 1.78 ± 0.46 nM. For the same compound, the “% of PrRP31, RC-4B/C rat pituitary cells” value at rat PrRP receptor was determined as 277%.

For the origin of these results see patent US10350271B2, “Lipidated peptides for lowering blood glucose” (USTAV ORGANICKE CHEMIE A BIOCHEMIE AKADEMIE VED CR, V.V.I., priority 2014, dated 2019).
